Patent publication US4699910A, “N-(3-trifluoromethyl-phenyl)-N'-propargyl-piperazine and salts thereof useful as analgesics” (Boehringer Ingelheim KG, priority 1983, dated 1987)

Tests used:
Assay type in all cases: in vivo
[1] = Writhing test (analgesia)
[2] = test system: Rabbit's tooth pulp; assay: Rabbit's tooth pulp test (analgesia); conditions: s.c.
Source text: 3. Rabbit's tooth pulp test
Hoffmeister, F., Arzneimittelf. 16 (supplement), 1968.

[3] = Gait test (analgesia); conditions: sc
Source text: Atkinson, D. C., and Cowan, A. J., Pharm. Pharmacol. 26, 727-728 (1974)

[4] = po, read-out: Writhing test ED50 p.o.
[5] = sc, read-out: Writhing test ED50 s.c.

SMILES	ED50 [1, 4]	ED50 [1, 5]	Rabbit's tooth pulp test EDIV [2]	ED50 [3]
Cc1c(N(C)CS(=O)(=O)O)c(=O)n(-c2ccccc2)n1C [Metamizole-sodium (Novalgin ®)]	80 mg/kg	25 mg/kg	approx. 560	97 mg/kg
C#CCN1CCN(c2cccc(C(F)(F)F)c2)CC1.Cl [N-(3-Trifluoromethyl-phenyl)-N'-propargyl-piperazine hydrochloride]	43 mg/kg	5.3 mg/kg	approx. 10	2.8 mg/kg
